Like-named read-outs stand apart in the source and are kept apart here.
How the values were obtained:
[1] = system: breast cancer cell line MCF-7; assay: IC50 on breast cancer cell line MCF-7; type: cell-based; details: Homo sapiens, MCF7, 72 h, read-out: MCF-7 (IC50, nM)
Protocol: From the activity evaluation data of the above-mentioned preliminary screen, it can be seen that the series of taxanes derivatives synthesized in the present invention have activity. Afterward, the compounds are investigated to examine their IC50 values on breast cancer cell line MCF-7. […] Experiments for each compound were independently repeated for three times and multiple holes were used in each experiment. The exposure time of drugs was 72 hours.

[2] = system: LNCaP prostate cancer; assay: MTT proliferation inhibition, LNCaP; type: cell-based; details: Homo sapiens, read-out: Proliferation inhibition rate, LNCaP Prostate cancer
From the text: (§1) 1. Cytotoxicity Assay Using Human Tumor Cell Lines
(§2) Paclitaxel was used as the positive drug.

[3] = system: A2780 ovarian cancer; assay: MTT proliferation inhibition, A2780; type: cell-based; details: Homo sapiens, A2780, read-out: Proliferation inhibition rate, A2780 Ovarian cancer
From the text: as §1, §2

[4] = system: K562 leukemia; assay: MTT proliferation inhibition, K562; type: cell-based; details: Homo sapiens, K562, read-out: Proliferation inhibition rate, K562 Leukemia
From the text: as §1, §2

[5] = system: A549 non-small cell lung cancer; assay: MTT proliferation inhibition, A549; type: cell-based; details: Homo sapiens, A549, read-out: Proliferation inhibition rate, A549 Non-small cell lung cancer
From the text: as §1, §2

[6] = system: BGC-823 gastric cancer; assay: MTT proliferation inhibition, BGC-823; type: cell-based; details: Homo sapiens, BGC-823, read-out: Proliferation inhibition rate, BGC-823 Gastric cancer
From the text: as §1, §2

[7] = system: HL-60 leukemia; assay: MTT proliferation inhibition, HL-60; type: cell-based; details: Homo sapiens, HL-60, read-out: Proliferation inhibition rate, HL60 Leukemia
From the text: as §1, §2

[8] = system: MCF-7 breast cancer cells; assay: MTT proliferation inhibition, MCF-7; type: cell-based; details: Homo sapiens, MCF7, read-out: Proliferation inhibition rate, MCF-7 Breast cancer
From the text: as §1, §2

[9] = system: LN-18; assay: MTT proliferation inhibition, LN-18; type: cell-based; details: Homo sapiens, LN-18, read-out: Proliferation inhibition rate, LN-18 Gastric canser
From the text: as §1, §2

[10] = system: Du145 prostate cancer; assay: MTT proliferation inhibition, Du145; type: cell-based; details: Homo sapiens, DU-145, read-out: Proliferation inhibition rate, DU145 Prostate cancer
From the text: as §1, §2

[11] = system: B16 melanoma; assay: MTT proliferation inhibition, B16; type: cell-based; details: B16, read-out: Proliferation inhibition rate, B16 Melanoma
From the text: as §1, §2

[12] = system: Hela cervical cancer; assay: MTT proliferation inhibition, HeLa; type: cell-based; details: Homo sapiens, read-out: Proliferation inhibition rate, HeLa Uterin cancer
From the text: as §1, §2

[13] = Caco-2 cell monolayer membrane transport assay (Papp and recovery); type: in vitro ADME; details: human, Caco-2, Caco-2, A-B
From the text: Caco-2 Cell Monolayer Membrane Transport Assay
(§3) Human-derived colorectal adenocarcinoma cell line Caco-2 cell monolayer model was used to study the bidirectional transport of the target compounds from the apical (AP) side to the basolateral (BL) side and from BL side to AP side. HPLC was used for quantitative analysis to calculate transport parameters, apparent permeability coefficient (Papp) and the efflux ratio.

[14] = system: HT-29 colon cancer; assay: MTT proliferation inhibition, HT-29; type: cell-based; details: Homo sapiens, HT-29, read-out: Proliferation inhibition rate, HT29 Colon cancer
From the text: as §1, §2

[15] = system: A375 melanoma; assay: MTT proliferation inhibition, A375; type: cell-based; details: Homo sapiens, A-375, read-out: Proliferation inhibition rate, A375 Melanoma
From the text: as §1, §2

[16] = Caco-2 bidirectional transport, efflux ratio; details: human, Caco-2
From the text: as §3

[17] = system: Caco-2 cell monolayer; assay: Caco-2 bidirectional transport, efflux ratio; details: Caco-2 cell line (21 days); for efflux ratio: Papp B-A/Papp A-B
From the text: as §3

[18] = system: NCI-H460 non-small cell lung cancer; assay: MTT proliferation inhibition, NCI-H460; type: cell-based; details: Homo sapiens, NCI-H460, read-out: Proliferation inhibition rate, NCI-H460 Non-small cell lung cancer
From the text: as §1, §2

[19] = system: MDA-MB-436 breast cancer cells; assay: MTT proliferation inhibition, MDA-MB-436; type: cell-based; details: Homo sapiens, MDA-MB-436, read-out: Proliferation inhibition rate, MDA-MB-436 Breast cancer
From the text: as §1, §2

[20] = system: HCT 116 colon cancer; assay: MTT proliferation inhibition, HCT 116; type: cell-based; details: Homo sapiens, HCT-116, read-out: Proliferation inhibition rate, HCT 116 Colon cancer
From the text: as §1, §2

[21] = Mean, read-out: Recovery rate in mass, Mean
[22] = Sample-01, read-out: Papp A-B, Sample-01
[23] = Sample-01, read-out: Recovery rate in mass, Sample-01
[24] = Sample-02, read-out: Papp A-B, Sample-02
[25] = Sample-02, read-out: Recovery rate in mass, Sample-02

| SMILES | IC50 [1] [nM] | inhibition at 1 µM [2] [%] | inhibition at 1 µM [3] [%] | inhibition at 1 µM [4] [%] | inhibition at 1 µM [5] [%] | inhibition at 1 µM [6] [%] | inhibition at 1 µM [7] [%] | inhibition at 1 µM [8] [%] | inhibition at 1 µM [9] [%] | inhibition at 1 µM [10] [%] | inhibition at 1 µM [11] [%] | inhibition at 1 µM [12] [%] | recovery [13, 21] [%] | Papp A→B [13, 22] [×10⁻⁶ cm/s] | recovery [13, 23] [%] | Papp A→B [13, 24] [×10⁻⁶ cm/s] | recovery [13, 25] [%] | inhibition at 1 µM [14] [%] | inhibition at 1 µM [15] [%] | inhibition at 1 µM [18] [%] | also measured |
| --- | --- | --- | --- | --- | --- | --- | --- | --- | --- | --- | --- | --- | --- | --- | --- | --- | --- | --- | --- | --- | --- |
| COC(=O)O[C@H]1C[C@H]2OC[C@@]2(OC(C)=O)[C@H]2[C@H](OC(=O)c3ccccc3)[C@]34OC(=O)O[C@H]3[C@H](OC(=O)[C@H](O)[C@H](CC(C)C)NC(=O)OC(C)(C)C)C(C)=C([C@@H](OC)C(=O)[C@]12C)C4(C)C [PCMI-20] | 2.94 ± 0.04 | 86 | 95.5 | 93.8 | 80.4 | 95 | 96.9 | 85.4 | 94.3 | 88.6 | 81.6 | 101 | 86.5 | 1.08 | 89.8 | 0.75 | 83.3 | 87.2 | 93.4 | 86.8 | Papp A→B ([13]; Mean, read-out: Papp A-B, Mean): 0.92 ×10⁻⁶ cm/s; Papp A→B [16]: 0.92 ×10⁻⁶ cm/s; Papp B-A [17]: 7.16 10^−6 cm/s; efflux ratio [17]: 7.81; inhibition at 1 µM [19]: 81.1%; inhibition at 1 µM [20]: 68.6% |
| CO[C@H]1C(=O)[C@]2(C)CC[C@H]3OC[C@@]3(OC(C)=O)[C@H]2[C@H](OC(=O)c2ccccc2)[C@]23OC(=O)O[C@H]2[C@H](OC(=O)[C@H](O)[C@@H](NC(=O)OC(C)(C)C)c2ccccc2)C(C)=C1C3(C)C [PCMI-07] | 4.49 ± 0.02 | 84.9 | 95 | 94 | 74.9 | 94.1 | 97.5 | 87.1 | 96.1 | 86.8 | 78.6 | 100 | 50.3 | 3.24 | 54.2 | 2.05 | 46.3 | 86.6 | 92.5 | 82.7 | Papp A→B ([13]; Mean, read-out: Papp A-B, Mean): 2.64 ×10⁻⁶ cm/s; Papp A-B ([17]; A-B): 2.64 10^−6 cm/s; Papp B-A [17]: 25.26 10^−6 cm/s; efflux ratio [17]: 9.56; inhibition at 1 µM [19]: 80.5%; inhibition at 1 µM [20]: 68.8% |
| CO[C@H]1C(=O)[C@]2(C)[C@@H](OC)C[C@H]3OC[C@@]3(OC(C)=O)[C@H]2[C@H](OC(=O)c2ccccc2)[C@]23OC(=O)O[C@H]2[C@H](OC(=O)[C@H](O)[C@@H](NC(=O)OC(C)(C)C)c2ccccn2)C(C)=C1C3(C)C [PCMI-04] | 3.4 ± 0.14 | 79.2 | 94.7 | 91.5 | 66.3 | 89.8 | 95.8 | 101 | 91.8 | 83.9 | 73.2 | 98.3 | 75.9 | 4.46 | 85.2 | 2.86 | 66.5 | 88.3 | 82.2 | 81.8 | Papp A→B [16]: 3.21 ×10⁻⁶ cm/s; Papp B→A [16]: 26.4 ×10⁻⁶ cm/s; efflux ratio [16]: 8.24; inhibition at 1 µM [19]: 79.4%; inhibition at 1 µM [20]: 55% |
| CO[C@H]1C(=O)[C@]2(C)[C@@H](OC)C[C@H]3OC[C@@]3(OC(C)=O)[C@H]2[C@H](OC(=O)c2ccccc2)[C@]23OC(=O)O[C@H]2[C@H](OC(=O)[C@H](O)[C@@H](NC(=O)N(C)C)c2ccccc2)C(C)=C1C3(C)C [PCMI-03] | 2.89 ± 0.1 | 82.6 | 95.1 | 93.6 | 68.6 | 92.3 | 95.7 | 95.3 | 95.3 | 85 | 78.2 | 99.4 | 61.7 | 3.45 | 65.1 | 3.89 | 58.2 | 88.5 | 88.6 | 85.3 | Papp A→B ([13]; Mean, read-out: Papp A-B, Mean): 3.67 ×10⁻⁶ cm/s; Papp A→B [16]: 2.97 ×10⁻⁶ cm/s; Papp B→A [16]: 28.6 ×10⁻⁶ cm/s; efflux ratio [16]: 9.62; inhibition at 1 µM [19]: 80.1%; inhibition at 1 µM [20]: 58.3% |
